Activity calls are given as the source filed them. No cut-off for these calls is given here.
Columns and labels:
[1] = tested on: C-X-C chemokine receptor type 4 (Homo sapiens), P61073 [D182A]; assay: (§1) Displacement of [125I]12G5 antibody from extracellular loop 2 of human CXCR4 D182A mutant expressed in COS7 cells; assay type: cell-based; details: COS-7
[2] = biological target: C-X-C chemokine receptor type 4 (Homo sapiens, UniProt P61073, D182A); assay: as §1; assay type: cell-based, COS-7
[3] = biological target: C-X-C chemokine receptor type 4 (Homo sapiens, UniProt P61073, Q200W); assay: (§2) Antagonist activity at human CXCR4 Q200W mutant expressed in COS7 cells coexpressing G protein Gqi4myr assessed as inhibition of CXCL12-induced phosphatidylinositol turnover; assay type: functional, cell-based, COS-7
[4] = tested on: C-X-C chemokine receptor type 4 (Homo sapiens), P61073 [Q200W]; assay: as §2; assay type: functional, cell-based; details: COS-7
[5] = tested on: Human immunodeficiency virus 1; assay: Antiviral activity against HIV1 NDK infected in U87.CD4 cells expressing human CXCR4 H281A mutant; assay type: functional, organism-based; details: Human immunodeficiency virus 1, NDK
[6] = biological target: T1, C-X-C chemokine receptor type 4 (Homo sapiens, UniProt P61073, F172A); assay: (§3) Displacement of [125I]12G5 antibody from transmembrane domain 4 of human CXCR4 F172A mutant expressed in COS7 cells; assay type: cell-based, COS-7
T1 sequence (P61073 whole entry F172A, the tested form may be a part): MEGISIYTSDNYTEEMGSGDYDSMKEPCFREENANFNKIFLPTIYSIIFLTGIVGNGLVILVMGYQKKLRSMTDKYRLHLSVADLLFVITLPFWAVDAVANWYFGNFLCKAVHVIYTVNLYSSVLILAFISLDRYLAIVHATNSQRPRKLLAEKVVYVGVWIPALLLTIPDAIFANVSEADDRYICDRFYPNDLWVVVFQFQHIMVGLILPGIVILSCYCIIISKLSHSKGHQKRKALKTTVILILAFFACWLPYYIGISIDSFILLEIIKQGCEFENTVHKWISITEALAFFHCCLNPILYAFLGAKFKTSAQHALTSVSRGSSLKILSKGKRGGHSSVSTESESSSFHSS

[7] = tested on: C-X-C chemokine receptor type 4 (Homo sapiens), P61073 [F172A]; assay: as §3; assay type: cell-based; details: COS-7
C-X-C chemokine receptor type 4 (Homo sapiens), P61073 [F172A], sequence (P61073 whole entry F172A, the tested form may be a part): as above

[8] = tested on: C-X-C chemokine receptor type 4 (Homo sapiens), P61073 [V196A]; assay: (§4) Displacement of [125I]12G5 antibody from transmembrane domain 5 of human CXCR4 V196A mutant expressed in COS7 cells; assay type: cell-based; details: COS-7
C-X-C chemokine receptor type 4 (Homo sapiens), P61073 [V196A], sequence (P61073 whole entry V196A, the tested form may be a part): as the sequence (P61073 whole entry F172A, the tested form may be a part) above, with A172F, V196A counted along it

[9] = biological target: C-X-C chemokine receptor type 4 (Homo sapiens, UniProt P61073, V196A); assay: as §4; assay type: cell-based, COS-7
C-X-C chemokine receptor type 4 (Homo sapiens, UniProt P61073, V196A), sequence (P61073 whole entry V196A, the tested form may be a part): as the sequence (P61073 whole entry F172A, the tested form may be a part) above, with A172F, V196A counted along it

[10] = tested on: C-X-C chemokine receptor type 4 (Homo sapiens), P61073 [G207W]; assay: (§5) Displacement of [125I]12G5 antibody from transmembrane domain 5 of human CXCR4 G207W mutant expressed in COS7 cells; assay type: cell-based; details: COS-7
[11] = biological target: C-X-C chemokine receptor type 4 (Homo sapiens, UniProt P61073, G207W); assay: as §5; assay type: cell-based, COS-7
[12] = tested on: C-X-C chemokine receptor type 4 (Homo sapiens), P61073 [F174A]; assay: (§6) Displacement of [125I]12G5 antibody from transmembrane domain 4 of human CXCR4 F174A mutant expressed in COS7 cells; assay type: cell-based; details: COS-7
[13] = biological target: C-X-C chemokine receptor type 4 (Homo sapiens, UniProt P61073, F174A); assay: as §6; assay type: cell-based, COS-7
C-X-C chemokine receptor type 4 (Homo sapiens, UniProt P61073, F174A), sequence (P61073 whole entry F174A): as the sequence (P61073 whole entry F172A, the tested form may be a part) above, with A172F, F174A counted along it

[14] = tested on: C-X-C chemokine receptor type 4 (Homo sapiens), P61073 [I259W]; assay: (§7) Antagonist activity at human CXCR4 I259W mutant expressed in COS7 cells coexpressing G protein Gqi4myr assessed as inhibition of CXCL12-induced phosphatidylinositol turnover; assay type: functional, cell-based; details: COS-7
[15] = biological target: C-X-C chemokine receptor type 4 (Homo sapiens, UniProt P61073, I259W); assay: as §7; assay type: functional, cell-based, COS-7
[16] = biological target: C-X-C chemokine receptor type 4 (Homo sapiens, UniProt P61073, H203A); assay: (§8) Antagonist activity at human CXCR4 H203A mutant expressed in COS7 cells coexpressing G protein Gqi4myr assessed as inhibition of CXCL12-induced phosphatidylinositol turnover; assay type: functional, cell-based, COS-7
[17] = tested on: C-X-C chemokine receptor type 4 (Homo sapiens), P61073 [H203A]; assay: as §8; assay type: functional, cell-based; details: COS-7
[18] = tested on: Human immunodeficiency virus 1; assay: Antiviral activity against HIV1 NL43 infected in U87.CD4 cells expressing human CXCR4 E288A mutant; assay type: functional, organism-based
[19] = tested on: Human immunodeficiency virus 1; assay: Antiviral activity against HIV1 NDK infected in U87.CD4 cells expressing human wild type CXCR4; assay type: functional, organism-based; details: Human immunodeficiency virus 1, NDK
[20] = tested on: C-X-C chemokine receptor type 4 (Homo sapiens), P61073 [A175F]; assay: (§9) Antagonist activity at human CXCR4 A175F mutant expressed in COS7 cells coexpressing G protein Gqi4myr assessed as inhibition of CXCL12-induced phosphatidylinositol turnover; assay type: functional, cell-based; details: COS-7
[21] = biological target: C-X-C chemokine receptor type 4 (Homo sapiens, UniProt P61073, A175F); assay: as §9; assay type: functional, cell-based, COS-7
[22] = tested on: C-X-C chemokine receptor type 4 (Homo sapiens), P61073 [I284A]; assay: (§10) Antagonist activity at human CXCR4 I284A mutant expressed in COS7 cells coexpressing G protein Gqi4myr assessed as inhibition of CXCL12-induced phosphatidylinositol turnover; assay type: functional, cell-based; details: COS-7
C-X-C chemokine receptor type 4 (Homo sapiens), P61073 [I284A], sequence (P61073 whole entry I284A, the tested form may be a part): as the sequence (P61073 whole entry F172A, the tested form may be a part) above, with A172F, I284A counted along it

[23] = biological target: T2, C-X-C chemokine receptor type 4 (Homo sapiens, UniProt P61073, I284A); assay: as §10; assay type: functional, cell-based, COS-7
T2 sequence (P61073 whole entry I284A): as the sequence (P61073 whole entry F172A, the tested form may be a part) above, with A172F, I284A counted along it

[24] = biological target: T1, C-X-C chemokine receptor type 4; assay: (§11) Antagonist activity at human CXCR4 F172A mutant expressed in COS7 cells coexpressing G protein Gqi4myr assessed as inhibition of CXCL12-induced phosphatidylinositol turnover; assay type: functional, cell-based, COS-7
[25] = tested on: C-X-C chemokine receptor type 4 (Homo sapiens), P61073 [F172A]; assay: as §11; assay type: functional, cell-based; details: COS-7
[26] = tested on: C-X-C chemokine receptor type 4 (Homo sapiens), P61073 [Y255A]; assay: (§12) Displacement of [125I]12G5 antibody from transmembrane domain 6 of human CXCR4 Y255A mutant expressed in COS7 cells; assay type: cell-based; details: COS-7
[27] = biological target: C-X-C chemokine receptor type 4 (Homo sapiens, UniProt P61073, Y255A); assay: as §12; assay type: cell-based, COS-7
[28] = tested on: C-X-C chemokine receptor type 4 (Homo sapiens), P61073 [D171N]; assay: (§13) Displacement of [125I]12G5 antibody from transmembrane domain 4 of human CXCR4 D171N mutant expressed in COS7 cells; assay type: cell-based; details: COS-7
C-X-C chemokine receptor type 4 (Homo sapiens), P61073 [D171N], sequence (P61073 whole entry D171N, the tested form may be a part): as the sequence (P61073 whole entry F172A, the tested form may be a part) above, with D171N, A172F counted along it

[29] = biological target: C-X-C chemokine receptor type 4 (Homo sapiens, UniProt P61073, D171N); assay: as §13; assay type: cell-based, COS-7
C-X-C chemokine receptor type 4 (Homo sapiens, UniProt P61073, D171N), sequence (P61073 whole entry D171N): as the sequence (P61073 whole entry F172A, the tested form may be a part) above, with D171N, A172F counted along it

[30] = tested on: C-X-C chemokine receptor type 4 (Homo sapiens), P61073 [H113A]; assay: (§14) Antagonist activity at human CXCR4 H113A mutant expressed in COS7 cells coexpressing G protein Gqi4myr assessed as inhibition of CXCL12-induced phosphatidylinositol turnover; assay type: functional, cell-based; details: COS-7
C-X-C chemokine receptor type 4 (Homo sapiens), P61073 [H113A], sequence (P61073 whole entry H113A): as the sequence (P61073 whole entry F172A, the tested form may be a part) above, with H113A, A172F counted along it

[31] = biological target: C-X-C chemokine receptor type 4 (Homo sapiens, UniProt P61073, H113A); assay: as §14; assay type: functional, cell-based, COS-7
C-X-C chemokine receptor type 4 (Homo sapiens, UniProt P61073, H113A), sequence (P61073 whole entry H113A, the tested form may be a part): as the sequence (P61073 whole entry F172A, the tested form may be a part) above, with H113A, A172F counted along it

[32] = tested on: C-X-C chemokine receptor type 4 (Homo sapiens), P61073 [H281A]; assay: (§15) Displacement of [125I]12G5 antibody from transmembrane domain 7 of human CXCR4 H281A mutant expressed in COS7 cells; assay type: cell-based; details: COS-7
[33] = biological target: C-X-C chemokine receptor type 4 (Homo sapiens, UniProt P61073, H281A); assay: as §15; assay type: cell-based, COS-7
[34] = tested on: Human immunodeficiency virus 1; assay: Antiviral activity against HIV1 NDK infected in U87.CD4 cells expressing human CXCR4 D171N mutant; assay type: functional, organism-based; details: Human immunodeficiency virus 1, NDK
[35] = tested on: Human immunodeficiency virus 1; assay: Antiviral activity against HIV1 NL43 infected in U87.CD4 cells expressing human CXCR4 D171N/D262N mutant; assay type: functional, organism-based
[36] = tested on: Human immunodeficiency virus 1; assay: Antiviral activity against HIV1 clinical isolate 10 infected in U87.CD4 cells expressing human CXCR4 D171ND262N mutant; assay type: functional, organism-based; details: Human immunodeficiency virus 1, U87.CD4
[37] = tested on: C-X-C chemokine receptor type 4 (Homo sapiens), P61073 [I284A]; assay: (§16) Displacement of [125I]12G5 antibody from transmembrane domain 7 of human CXCR4 I284A mutant expressed in COS7 cells; assay type: cell-based; details: COS-7
[38] = biological target: T2, C-X-C chemokine receptor type 4; assay: as §16; assay type: cell-based, COS-7
[39] = tested on: Human immunodeficiency virus 1; assay: Antiviral activity against HIV1 NL43 infected in U87.CD4 cells expressing human CXCR4 D171N mutant; assay type: functional, organism-based; details: Human immunodeficiency virus 1, NL43, U87.CD4
[40] = tested on: C-X-C chemokine receptor type 4 (Homo sapiens), P61073 [L120F]; assay: (§17) Antagonist activity at human CXCR4 L120F mutant expressed in COS7 cells coexpressing G protein Gqi4myr assessed as inhibition of CXCL12-induced phosphatidylinositol turnover; assay type: functional, cell-based; details: COS-7
C-X-C chemokine receptor type 4 (Homo sapiens), P61073 [L120F], sequence (P61073 whole entry L120F): as the sequence (P61073 whole entry F172A, the tested form may be a part) above, with L120F, A172F counted along it

[41] = biological target: C-X-C chemokine receptor type 4 (Homo sapiens, UniProt P61073, L120F); assay: as §17; assay type: functional, cell-based, COS-7
C-X-C chemokine receptor type 4 (Homo sapiens, UniProt P61073, L120F), sequence (P61073 whole entry L120F): as the sequence (P61073 whole entry F172A, the tested form may be a part) above, with L120F, A172F counted along it

Question: How did the logKi [1] turn out when c1ccc(CNCc2ccc(CN3CCCNCCNCCCNCC3)cc2)nc1 was run?
Answer: -7.44

Question: And the Ki [2]?
Answer: 40 nM

Question: What about the Ki [3] of the same compound?
Answer: 220 nM

Question: And the logIC50 [4]?
Answer: -6.65

Question: What about the IC50 [5] of the same compound?
Answer: 37 nM

Question: What about the Ki [6] of the same compound?
Answer: 560 nM

Question: And the logKi [7]?
Answer: -6.25

Question: And the logKi [8]?
Answer: -5.74

Question: And the Ki [9]?
Answer: 1800 nM

Question: What about the logKi [10] of the same compound?
Answer: -6.88

Question: What about the Ki [11] of the same compound?
Answer: 130 nM

Question: And the logKi [12]?
Answer: -6.01

Question: And the Ki [13]?
Answer: 980 nM

Question: What about the logIC50 [14] of the same compound?
Answer: -7.08

Question: And the Ki [15]?
Answer: 80 nM

Question: And the Ki [16]?
Answer: 40 nM

Question: What about the logIC50 [17] of the same compound?
Answer: -7.43

Question: And the Activity [18]?
Answer: inactive

Question: What about the IC50 [19] of the same compound?
Answer: 2700 nM

Question: And the logIC50 [20]?
Answer: -5.89

Question: And the Ki [21]?
Answer: 1300 nM

Question: What about the logIC50 [22] of the same compound?
Answer: -7.5

Question: What about the Ki [23] of the same compound?
Answer: 30 nM

Question: What about the Ki [24] of the same compound?
Answer: 10 nM

Question: What about the logIC50 [25] of the same compound?
Answer: -7.93

Question: And the logKi [26]?
Answer: -6.35

Question: And the Ki [27]?
Answer: 450 nM

Question: And the logKi [28]?
Answer: -5.49

Question: And the Ki [29]?
Answer: 3.2 µM

Question: And the logIC50 [30]?
Answer: -6.89

Question: And the Ki [31]?
Answer: 130 nM

Question: And the logKi [32]?
Answer: -3.29

Question: And the Ki [33]?
Answer: 519 µM

Question: What about the IC50 [34] of the same compound?
Answer: 22 µM

Question: What about the Activity [35] of the same compound?
Answer: Active

Question: And the IC50 [36]?
Answer: 4.04 µM

Question: And the logKi [37]?
Answer: -4.34

Question: And the Ki [38]?
Answer: 46 µM

Question: What about the IC50 [39] of the same compound?
Answer: 164 µM

Question: And the logIC50 [40]?
Answer: -8.18

Question: What about the Ki [41] of the same compound?
Answer: 10 nM

From ChEMBL document CHEMBL1156482, “Molecular mechanism of action of monocyclam versus bicyclam non-peptide antagonists in the CXCR4 chemokine receptor” (J Biol Chem, 2007)
